# In ChEMBL document CHEMBL4190379 (Bioorg Med Chem Lett, 2018):
# How the values were obtained:
# OPM-2 = test: Antitumor activity against human OPM2 cells xenografted in SCID-beige mouse assessed as inhibition of tumor growth at 0.31 mg/kg, po qd administered for 28 days starting from 18 days post tumor inoculation; assay type: functional; details: OPM-2, po, read-out: TGI
# Mus musculus = test: Toxicity in human OPM2 cells xenografted SCID-beige mouse assessed as morbidity at 0.31 mg/kg, po qd administered for 28 days starting from 18 days post tumor inoculation; assay type: organism-based; details: in vivo
structure (smiles),measurement,setting,value
Cn1cc2c3c(c[nH]c3c1=O)CN(c1ccccn1)c1ccc(CS(C)(=O)=O)cc1-2,inhibition in vivo at 0.31 mg/kg,OPM-2,60%
same,Activity,Mus musculus,Non-Toxic
